Test results taken from publication PMC8064294 (Journal of medicinal chemistry, 2020).
Blank lines part the entries; values can stand above or below the compound they belong to.

What was measured:
[1] = target: T1, ULK1 (NanoLuc-ULK1 fusion) (Homo sapiens, UniProt O75385); test: ULK1 NanoBRET intracellular kinase target engagement assay in HEK293T cells; assay type: cell-based; details: HEK293T live cells
T1 sequence (O75385 1-1050): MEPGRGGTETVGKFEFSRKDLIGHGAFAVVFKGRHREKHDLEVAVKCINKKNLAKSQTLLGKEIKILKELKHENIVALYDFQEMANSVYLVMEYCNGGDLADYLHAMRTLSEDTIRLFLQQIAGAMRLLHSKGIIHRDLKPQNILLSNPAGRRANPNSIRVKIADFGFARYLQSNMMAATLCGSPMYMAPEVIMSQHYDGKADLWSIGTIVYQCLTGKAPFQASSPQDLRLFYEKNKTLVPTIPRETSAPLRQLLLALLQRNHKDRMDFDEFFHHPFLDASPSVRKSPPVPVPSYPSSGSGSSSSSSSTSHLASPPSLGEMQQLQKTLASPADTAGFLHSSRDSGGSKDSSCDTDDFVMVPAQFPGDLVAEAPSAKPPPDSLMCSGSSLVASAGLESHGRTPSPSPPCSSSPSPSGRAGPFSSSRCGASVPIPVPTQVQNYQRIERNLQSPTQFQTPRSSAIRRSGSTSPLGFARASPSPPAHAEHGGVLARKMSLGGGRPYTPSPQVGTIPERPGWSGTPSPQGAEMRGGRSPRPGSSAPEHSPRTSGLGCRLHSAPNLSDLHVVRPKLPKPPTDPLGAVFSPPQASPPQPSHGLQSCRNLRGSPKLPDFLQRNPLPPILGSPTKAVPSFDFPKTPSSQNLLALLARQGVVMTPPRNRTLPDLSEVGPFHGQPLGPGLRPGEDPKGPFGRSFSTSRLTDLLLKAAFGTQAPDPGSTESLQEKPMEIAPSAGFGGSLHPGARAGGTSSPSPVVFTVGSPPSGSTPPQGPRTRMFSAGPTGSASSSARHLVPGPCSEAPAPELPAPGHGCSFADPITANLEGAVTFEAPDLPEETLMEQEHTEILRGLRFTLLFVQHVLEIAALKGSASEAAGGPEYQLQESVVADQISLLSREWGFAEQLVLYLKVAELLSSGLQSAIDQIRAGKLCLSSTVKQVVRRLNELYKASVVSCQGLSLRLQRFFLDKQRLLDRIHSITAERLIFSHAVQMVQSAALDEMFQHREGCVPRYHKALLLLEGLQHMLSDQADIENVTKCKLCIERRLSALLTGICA

[2] = test system: pATG13 (Ser318), ATG13 and ULK1 in liver lysates; test: PD study, in vivo target engagement in mouse liver; details: mice, 10 mg/kg oral gavage, 2 h post dosing
[3] = test system: autophagic flux in MDA-MB-468 cells expressing mCherry-EGFP-LC3; test: mCherry-GFP-LC3 FACS autophagic flux assay; assay type: cell-based, human; details: 48 h
[4] = test system: autophagosomes in MDA-MB-468 cells; test: TEM imaging of autophagosomes; assay type: cell-based, human; details: EBSS starved cells, 10 μM
MDA-MB-468 cells = test: Combination dose-response matrix with PARP inhibitors, Combenefit Loewe model; assay type: cell-based, human; details: combination with niraparib; synergy at 26 0.19–1.7 μM and niraparib 3.8–7.5 μM
[5] = PK study in mice, plasma concentration by LC-MS/MS; details: single oral dose 30 mg/kg
[6] = target: T2, recombinant human ULK1 protein (1-649) (Homo sapiens, UniProt O75385); test: ULK1 ADP-Glo kinase assay; assay type: biochemical; details: for ULK1 ADP-Glo potency compared with compound 3: in words
T2 sequence (O75385 1-649): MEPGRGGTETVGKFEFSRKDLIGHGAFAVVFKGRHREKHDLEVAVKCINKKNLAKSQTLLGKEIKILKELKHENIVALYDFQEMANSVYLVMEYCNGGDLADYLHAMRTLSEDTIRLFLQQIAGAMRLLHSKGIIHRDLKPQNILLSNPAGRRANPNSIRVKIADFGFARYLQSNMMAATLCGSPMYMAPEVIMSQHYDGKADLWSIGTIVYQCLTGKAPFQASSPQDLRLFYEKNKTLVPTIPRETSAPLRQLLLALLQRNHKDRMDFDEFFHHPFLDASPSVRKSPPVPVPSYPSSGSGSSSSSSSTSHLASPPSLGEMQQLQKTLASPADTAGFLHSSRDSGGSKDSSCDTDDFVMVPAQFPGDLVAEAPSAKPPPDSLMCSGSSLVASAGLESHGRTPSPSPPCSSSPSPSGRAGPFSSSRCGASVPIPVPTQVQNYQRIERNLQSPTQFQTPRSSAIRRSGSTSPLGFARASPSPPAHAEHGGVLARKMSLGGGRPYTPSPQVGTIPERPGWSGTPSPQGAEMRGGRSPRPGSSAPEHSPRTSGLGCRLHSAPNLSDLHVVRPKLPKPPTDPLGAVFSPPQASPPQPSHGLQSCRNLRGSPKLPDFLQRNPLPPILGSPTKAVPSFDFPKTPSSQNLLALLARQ

Kinetic solubility = assay type: physicochemical
[7] = mice, stated as noted previously, no data shown, cited from earlier work

ULK1 ADP-Glo potency compared with compound 3 [6]: approximately equipotent with 3 | solubility in PBS (in words) (Kinetic solubility): limited solubility
SMILES: FC(F)(F)c1cnc(Nc2cnc3[nH]ccc3c2)nc1NC1CC1 [compound 11, N^4-Cyclopropyl-N^2-(1H-pyrrolo[2,3-b]pyridin-5-yl)-5-(trifluoromethyl)pyrimidine-2,4-diamine]

solubility in PBS (in words) (Kinetic solubility): limited solubility
SMILES: O=C1CCCc2cc(Nc3ncc(C(F)(F)F)c(NC4CC4)n3)ccc21 [compound 19, 6-((4-(Cyclopropylamino)-5-(trifluoromethyl)pyrimidin-2-yl)amino)-3,4-dihydronaphthalen-1(2H)-one]

ULK1 ADP-Glo potency compared with compound 3 [6]: approximately equipotent with 3
SMILES: FC(F)(F)c1cnc(Nc2ccc3ncoc3c2)nc1NC1CC1 [compound 15, N^2-(Benzo[d]oxazol-6-yl)-N^4-cyclopropyl-5-(trifluoromethyl)pyrimidine-2,4-diamine]

ULK1 NanoBRET IC50 (range in words) [1]: sub-micromolar range
SMILES: Nc1ccc(Nc2ncc(C(F)(F)F)c(NC3CC3)n2)cc1 [compound 23, N^2-(4-Aminophenyl)-N^4-cyclopropyl-5-(trifluoro-methyl)-pyrimidine-2,4-diamine]

ULK1 NanoBRET IC50 (range in words) [1]: sub-micromolar range
SMILES: FC(F)(F)c1cnc(Nc2ccc3ncccc3c2)nc1NC1CC1 [compound 16, N^4-Cyclopropyl-N^2-(quinolin-6-yl)-5-(trifluoromethyl)-pyrimidine-2,4-diamine]

The remaining lines, values behind:

SMILES: COc1ccc(Nc2ncc(C(F)(F)F)c(NC3CC3)n2)cc1OC [compound 26, N^4-Cyclopropyl-N^2-(3,4-dimethoxyphenyl)-5-(trifluoromethyl)pyrimidine-2,4-diamine]
ULK1 NanoBRET IC50 (range in words) [1]: sub-micromolar range | effect on pATG13 (Ser318) in liver [2]: robust inhibition of pATG13 (Ser318) | effect on total ATG13 and ULK1 levels in liver [2]: downregulation of total ATG13 and ULK1 levels | effect on olaparib-induced increase in autophagic flux ([3]; 10 μM with olaparib 30 μM): significantly suppressed the olaparib-induced increase in autophagic flux to a level similar to that observed in untreated control cells | number of autophagosomes by TEM [4]: decreased the number of autophagosomes to a greater extent than SBI-0206965 | maximum synergy score (Loewe) (MDA-MB-468 cells): 26 | Cmax relative to ULK1 NanoBRET IC50 [5]: about 3 fold

SMILES: CNC(=O)c1ccccc1Oc1nc(Nc2cc(OC)c(OC)c(OC)c2)ncc1Br [compound 1]
systemic exposure ([7]; ip dosing): poor systemic exposure | oral bioavailability [7]: no measurable oral bioavailability

SMILES: FC(F)(F)c1cnc(Nc2ccc3nn[nH]c3c2)nc1NC1CC1 [compound 10, N^2-(1 H-Benzo[d][1,2,3]triazol-6-yl)-N^4-cyclopropyl-5-(trifluoromethyl)pyrimidine-2,4-diamine]
fold more potent than compound 3 in ULK1 ADP-Glo [6]: about 4 fold

SMILES: FC(F)(F)c1cnc(Nc2ccc3[nH]ccc3c2)nc1NC1CC1 [compound 8, N^4-Cyclopropyl-N^2-(1H-indol-5-yl)-5-(trifluoromethyl)-pyrimidine-2,4-diamine]
ULK1 ADP-Glo potency compared with compound 3 [6]: approximately equipotent with 3

SMILES: O=C(c1cc(Cc2n[nH]c(=O)c3ccccc23)ccc1F)N1CCN(C(=O)C2CC2)CC1 [olaparib, reference compound]
increase in autophagic flux compared with control cells ([3]; 30 μM): approximately 30%
